# Measurements taken from patent EP4000614A1, “EFLOXATE FOR USE AS ANTIVIRAL AGENT” (Consejo Superior de Investigaciones Científicas (CSIC), priority 2020, dated 2022).
# Columns and labels:
# 229E-GFP virus = test: microbe, parasite or virus in culture; format: cell-based, human 229E coronavirus; conditions: 72 h
# [1] = Cytotoxicity measurement by MTT assay; format: cell-based; conditions: African green monkey, Vero-E6 cells
# Experimental: (§1) Cytotoxicity measurement by MTT assays (MTT assay: cell viability assay that infers reductive capacity of the cells via formation of formazan precipitates. Overall estimation of cell metabolic rate): Vero-E6 cell monolayers were treated with a wide range of compound concentrations (from 50 to 0.78 µM) and forty-eight hours later they were subjected to MTT assays following the manufacturer's instructions. Compound concentration leading to a 50% of cytotoxicity (CC50) were determined (Table 2).
# Vero-E6 cells = test: Cytotoxicity measurement by MTT assay; format: cell-based; conditions: 48 hours
# Experimental: as §1
# in vitro = conditions: human
# [2] = tested on: SARS-CoV-2 strain NL/2020; test: SARS-CoV-2 cell monolayer protection assay (crystal violet) in Vero-E6 cells
# RD114-pseudotypes = format: cell-based
# [3] = tested on: SARS-CoV-2 S protein-pseudotyped retroviral vectors; format: cell-based
# [4] = tested on: pseudotypes based on vesicular stomatitis virus (VSV-G) glycoprotein; format: cell-based
# SARS-CoV-2 E RNA = test: Intracellular viral RNA quantitation by RT-qPCR in Vero-E6 cells; format: cell-based; conditions: for VIRAL LOAD MOI 0.001 (% OF CONTROL): MOI 0.001, 48 hours, Vero-E6; for LOG DROP: relative reduction in viral RNA accumulation in log scale
smiles,measurement,setting,value
"CCOC(=O)COc1ccc2c(=O)cc(-c3ccccc3)oc2c1 [Efloxate, efloxate]",EC50,229E-GFP virus; human coronavirus 229E,1.6 µM
same,EC90,229E-GFP virus; unidentified human coronavirus,5 µM
same,CC50 at 48 h,[1],> 50 µM
same,HIGHEST NON-TOXIC CONCENTRATION (MTT),Vero-E6 cells,12.5
same,CC50 at 72 h,in vitro,35 µM
same,PC MAX,"[2]; Maximum concentration that protects cells (100%) from the cytopathic effect, Vero-E6, MOI 0.001, 72 hours",50 µM
same,PC MIN,"[2]; Minimum concentration that protects cells (100%) from the cytopathic effect, Vero-E6, MOI 0.001, 72 hours",25 µM
same,antiviral activity at non-cytotoxic concentrations,"[2]; human coronavirus, including SARS-CoV-2",12.5 to 50 µM
same,RD114pp (% of control),RD114-pseudotypes,153.15 % of control
same,Spp (% of control),[3],16.68 % of control
same,pseudotype entry selectivity,[3],interfere selectively with Spp entry
same,VSVpp (% of control),[4],106.24 % of control
same,VIRAL LOAD MOI 0.001 (% OF CONTROL),SARS-CoV-2 E RNA; dose 12.5 µM,27.42 % OF CONTROL
same,VIRAL LOAD MOI 0.001 (% OF CONTROL),SARS-CoV-2 E RNA; dose 25 µM,24.34 % OF CONTROL
same,VIRAL LOAD MOI 0.001 (% OF CONTROL),SARS-CoV-2 E RNA; dose 35 µM,0.00 % OF CONTROL
same,VIRAL LOAD MOI 0.001 (% OF CONTROL),SARS-CoV-2 E RNA; dose 50 µM,0.06 % OF CONTROL
same,LOG DROP,SARS-CoV-2 E RNA; dose 12.5 µM,0.55
same,LOG DROP,SARS-CoV-2 E RNA; dose 25 µM,0.6
same,LOG DROP,SARS-CoV-2 E RNA; dose 35 µM,5.5
same,LOG DROP,SARS-CoV-2 E RNA; dose 50 µM,3.2
